Measured values taken from patent publication US20160038474A1, “COMPOSITIONS AND METHODS FOR THE MODULATION OF HEMOGLOBIN (S)” (GLOBAL BLOOD THERAPEUTICS, INC., priority 2013, published 2016).

Key:
Format in all cases: in vivo
[1] = Pharmacokinetics after single dose of GBT440 (FIG. 1), dog
From the text: (§1) FIG. 1 graphically illustrates the high oral bioavailability, sustained exposure and dramatic RBC partitioning following single dose of GBT440. Certain relevant pharmacokinetic parameters are tabulated below:
(§2) FIG. 1 in parts A, B, and C graphically illustrates the high in vivo oral bioavailability, sustained exposure and the high RBC partitioning following single dose of GBT440.

[2] = Pharmacokinetics after single dose of GBT440 (FIG. 1), rat
From the text: as §1, §2

[3] = Pharmacokinetics after single dose of GBT440 (FIG. 1), monkey
From the text: as §1, §2

bioavailability ([1]; in vivo, IV 1 mg/kg, PO 2.5 mg/kg, read-out: Oral bioavailability (% F)): 36.6%
blood plasma ratio ([1]; whole blood and plasma): 74.4
bioavailability ([2]; in vivo, IV 1.6 mg/kg, PO 7.2 mg/kg, read-out: Oral bioavailability (% F)): 59.8%
blood plasma ratio ([2]; whole blood and plasma): 69
bioavailability ([3]; in vivo, IV 1 mg/kg, PO 4.25 mg/kg, read-out: Oral bioavailability (% F)): 36.1%
blood plasma ratio ([3]; whole blood and plasma): 70.9
SMILES: CC(C)n1nccc1-c1ncccc1COc1cccc(O)c1C=O [GBT440]
